Legend:
[1] = tested on: B. subtilis 168; assay: fitness (endpoint OD595 vs no drug) (fraction); higher = more growth; details: main component drawn
How it was run: (§1)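 Fitness was defined as the optical density at the transition into stationary phase relative to the robust mean of no-drug control wells. Values were capped at 1. Cultures were started at OD595 0.01 in 384-well plates (30 µl, or 55 µl for S. pneumoniae) in TSB, LB Lennox or CY at 37 °C. OD595 was recorded every 30 min over 14 h, with the first reading subtracted as background.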

[2] = tested on: S. pneumoniae D39V; assay: as above
How it was run: as §1

[3] = tested on: B. subtilis 168; assay: Bliss interaction score (quartile over a dose matrix) (fitness difference); higher = more antagonism (negative = synergy)
How it was run: (§2)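 The Bliss score is observed fitness minus expected fitness, where the expected value is the product of single-drug fitness values inferred from combination data. Fitness is OD595 at entry into stationary phase normalised to the plate's robust no-drug mean and capped at 1. Scores are reported as quartiles spanning technical, biological and donor/recipient replicates.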

[4] = tested on: S. aureus DSM 20231; assay: as above
How it was run: as §2

[5] = tested on: S. aureus Newman; assay: as above
How it was run: as §2

[6] = tested on: S. pneumoniae D39V; assay: as above
How it was run: as §2

[7] = tested on: S. aureus Newman; assay: fitness (endpoint OD595 vs no drug) (fraction); higher = more growth; details: one replicate
How it was run: as §1
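For Bliss interaction score (quartile over a dose matrix) in this document: first quartile when negative (synergy) and third quartile when positive (antagonism).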

CNC(C)C1CCC(N)C(OC2C(N)CC(N)C(OC3OCC(C)(O)C(NC)C3O)C2O)O1 (stereo not given) [Gentamicin] + C[C@H]1COc2c(N3CCN(C)CC3)c(F)cc3c(=O)c(C(=O)O)cn1c23 [Levofloxacin]
fitness
Details | partner 0.001 µg/mL | partner 0.0078 µg/mL | partner 0.1725 µg/mL | partner 0.2 µg/mL | partner 0.345 µg/mL | partner 0.4 µg/mL | partner 0.69 µg/mL | partner 0.8 µg/mL
[1], first compound 0.0625 µg/mL, one replicate | 0.868 | 0.98 | – | – | – | – | – | –
[1], first compound 0.125 µg/mL, one replicate | 0.126 | 0.977 | – | – | – | – | – | –
[1], first compound 0.25 µg/mL, one replicate | 0.0524 | 0.259 | – | – | – | – | – | –
[2], first compound 2 µg/mL, main component drawn | – | – | 0.98 | 0.901 | 0.914 | 0.75 | 0.636 | 0.213
[2], first compound 4 µg/mL, main component drawn | – | – | 0.972 | 0.874 | 0.902 | 0.723 | 0.625 | 0.21
[2], first compound 8 µg/mL, main component drawn | – | – | 0.98 | 0.865 | 0.912 | 0.671 | 0.438 | 0.179

fitness, [1]
Details | partner 0.002 µg/mL | partner 0.0039 µg/mL | partner 0.0312 µg/mL | partner 0.0625 µg/mL | partner 0.125 µg/mL
first compound 0.0625 µg/mL | 0.89 | 0.89 | 0.0381 | 0.0442 | 0.0374
first compound 0.125 µg/mL | – | – | 0.0387 | 0.046 | 0.0388
first compound 0.25 µg/mL | 0.206 | 0.163 | 0.0407 | 0.0447 | 0.0485

main component drawn
Details | Bliss interaction score
[3] | -0.0837
[4] | 0.0527
[5] | 0.0894
[6] | -0.123

CC1=C(C(=O)O)N2C(=O)[C@@H](NC(=O)[C@H](N)c3ccccc3)[C@H]2SC1 [Cephalexin] + C/C(=C\C(=O)OCCCCCCCCC(=O)O)C[C@@H]1OC[C@H](C[C@@H]2O[C@H]2[C@@H](C)[C@H](C)O)[C@@H](O)[C@H]1O [Pseudomonic acid]
fitness
Details | first compound 0.5 µg/mL | first compound 1 µg/mL | first compound 2 µg/mL | first compound 4 µg/mL
[2], partner 0.03 µg/mL | – | 0.67 | – | 0.0998
[2], partner 0.06 µg/mL | – | 0.6 | – | 0.123
[2], partner 0.12 µg/mL | – | 0.38 | 0.215 | 0.122
[7], partner 0.0313 µg/mL | 0.0692 | 0.0733 | 0.0904 | –
[7], partner 0.0625 µg/mL | 0.036 | 0.0347 | 0.0466 | –
[7], partner 0.125 µg/mL | 0.0496 | 0.0429 | 0.049 | –

fitness, [2], one replicate
Details | first compound 0.125 µg/mL | first compound 0.25 µg/mL | first compound 0.5 µg/mL
partner 0.03 µg/mL | 0.933 | 0.958 | ≥ 1
partner 0.06 µg/mL | 0.733 | 0.828 | 0.893
partner 0.12 µg/mL | 0.45 | 0.559 | 0.616

Details | Bliss interaction score
[3] | 0.0311
[4] | 0.0119
[5] | 0.0223
[6] | 0.154
